Reference: ChEMBL document CHEMBL1128296, “Quantitative binding site model generation: compass applied to multiple chemotypes targeting the 5-HT1A receptor” (J Med Chem, 1995)
pKi: −log10 of the molar value.

Assay: Tested for activity against 5-hydroxytryptamine 1A receptor from bovine hippocampus

Compound	pKi
COc1cccc2c1C[C@H]1CCN(CC3CC3)[C@@H]1C2	7.54
C=CCN1CC[C@H]2c3ccccc3CC[C@H]21	7.51
CCCN1CC[C@@H]2c3ccccc3CC[C@H]21	7.36
C=CCN1C[C@H]2c3c(cccc3OC)CC[C@H]21	8.23
CCCN1CC[C@H]2c3c(cccc3OC)CC[C@H]21	6.73
C=CCN1CC[C@@H]2c3ccccc3CC[C@H]21	7.96
C=CCN1C[C@H]2c3c(O)cccc3CC[C@H]21	9.52
CCCN1CC[C@H]2c3ccccc3CC[C@H]21	7.43
COc1cccc2c1CC[C@@H]1[C@@H]2CCN1CC1CC1	7.18
COc1cccc2c1C[C@H]1CCN(Cc3ccccc3)[C@@H]1C2	6.90
COc1cccc2c1C[C@H]1CCN[C@@H]1C2	7.54
COc1cccc2c1C[C@H]1CCN(CC3CC3)[C@H]1C2	6.14
